{
  "source": "patent US20230277534A1",
  "about": "(Plexxikon Inc., priority 2011, published 2023)",
  "data": [
    {"molecular_target": "B-Raf V600E (Homo sapiens (Human), UniProt P15056, V600E)", "sequence (P15056 whole entry V600E)": "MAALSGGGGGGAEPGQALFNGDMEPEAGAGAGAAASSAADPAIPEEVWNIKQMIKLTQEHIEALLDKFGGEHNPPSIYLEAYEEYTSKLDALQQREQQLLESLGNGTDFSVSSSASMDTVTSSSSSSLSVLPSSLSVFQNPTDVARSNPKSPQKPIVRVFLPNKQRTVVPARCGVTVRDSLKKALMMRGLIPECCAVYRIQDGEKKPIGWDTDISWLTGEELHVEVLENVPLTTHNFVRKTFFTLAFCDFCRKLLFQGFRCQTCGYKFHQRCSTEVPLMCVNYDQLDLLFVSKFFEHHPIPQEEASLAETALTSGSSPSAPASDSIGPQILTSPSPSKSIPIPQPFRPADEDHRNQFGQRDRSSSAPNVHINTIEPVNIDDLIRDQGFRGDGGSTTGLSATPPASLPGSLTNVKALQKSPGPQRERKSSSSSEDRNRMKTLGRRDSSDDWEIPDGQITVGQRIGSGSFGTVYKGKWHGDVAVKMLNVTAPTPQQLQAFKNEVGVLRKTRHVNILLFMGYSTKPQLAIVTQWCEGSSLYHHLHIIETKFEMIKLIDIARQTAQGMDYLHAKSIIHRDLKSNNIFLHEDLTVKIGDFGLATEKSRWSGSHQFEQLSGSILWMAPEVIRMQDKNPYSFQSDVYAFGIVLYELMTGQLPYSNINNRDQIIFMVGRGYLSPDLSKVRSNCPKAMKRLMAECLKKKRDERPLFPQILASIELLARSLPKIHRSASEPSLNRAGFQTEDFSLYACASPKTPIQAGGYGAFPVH", "experiment": "B-Raf V600E kinase biochemical activity assay (AlphaScreen, biotin-MEK1 substrate)", "settings": "100 μM ATP", "protocol": "Assays for biochemical and cell based activity are known in the art, for example, as described in PCT publication WO 2007/002433, the disclosure of which is hereby incorporated by reference as it relates to such assays. For example, the biochemical activity IC50 values are determined with respect to inhibition of B-Raf V600E kinase activity or p-Erk kinase activity, where inhibition of phosphorylation of a peptide substrate is measured as a function of compound concentration. Compounds to be tested are diluted in dimethyl sulfoxide to a concentration of 0.1 mM. These are serially diluted 15 μL into 30 μL of dimethyl sulfoxide seven times in 96 well plates for a total of 8 dilution points, and for each dilution point 1 μL is added to a well of an assay plate. Plates are prepared such that each well in a 384 well plate contains 1 μL of compound in 10 μL volume with 0.1 ng Raf enzyme (i.e. any of B-Raf, c-Raf-1 or B-Raf V600E, Upstate Biotechnology or prepared by methods known to one of skill in the art), 50 mM HEPES, pH 7.0, 50 mM NaCl, 2 mM MgCl2, 1 mM MnCl2, 0.01% Tween-20, 1 mM DTT, and 100 nM biotin-MEK1 as substrate. The reaction is started with addition of 10 μL of 200 μM ATP (i.e. final 100 μM ATP). After incubation of the kinase reaction for 45 minutes at room temperature, 5 μL/well of Stop Solution is added (25 mM Hepes pH 7.5, 100 mM EDTA, 0.01% BSA with donor beads (Streptavidin coated beads, Perkin Elmer), acceptor beads (Protein A coated, Perkin Elmer), and anti phosphor MEK1/2 antibody (CellSignal), each at final concentration 10 μg/mL). The plates are incubated for 3 hours at room temperature and read on Envision reader (Perkin Elmer). Phosphorylation of Mek1 results in binding of the anti-phosphor-MEK1/2antibody and association of the donor and acceptor beads such that signal correlates with kinase activity. The signal vs. compound concentration is used to determine the IC50.", "units": {"IC50": "µM"}, "values": [
      {"smiles": "COC(=O)CCS(=O)(=O)Nc1cccc(C(=O)c2c[nH]c3ncc(-c4cnc(OC)nc4)cc23)c1F", "note": "[Compound P-0066, methyl 3-[[2-fluoro-3-[5-(2-methoxypyrimidin-5-yl)-1H-pyrrolo[2,3-b]pyridine-3-carbonyl]phenyl]sulfamoyl]propanoate]", "IC50": "< 0.1"},
      {"smiles": "COc1ncc(-c2cnc3[nH]cc(C(=O)c4cccc(NS(=O)(=O)C5CC5)c4F)c3c2)cn1", "note": "[Compound P-0067, N-[2-fluoro-3-[5-(2-methoxypyrimidin-5-yl)-1H-pyrrolo[2,3-b]pyridine-3-carbonyl]phenyl]cyclopropanesulfonamide]", "IC50": "< 0.1"},
      {"smiles": "CCNS(=O)(=O)Nc1cccc(C(=O)c2c[nH]c3ncc(-c4cnc(OC)nc4)cc23)c1F", "note": "[Compound P-0068, [3-(ethylsulfamoylamino)-2-fluoro-phenyl]-[5-(2-methoxypyrimidin-5-yl)-1H-pyrrolo[2,3-b]pyridin-3-yl]methanone]", "IC50": "< 0.1"},
      {"smiles": "CCNS(=O)(=O)Nc1cccc(C(=O)c2c[nH]c3ncc(I)cc23)c1F", "note": "[Compound P-0069, [3-(ethylsulfamoylamino)-2-fluoro-phenyl]-(5-iodo-1H-pyrrolo[2,3-b]pyridin-3-yl)methanone]", "IC50": "< 0.1"},
      {"smiles": "COc1ncc(-c2cnc3[nH]cc(C(=O)c4cccc(NS(=O)(=O)N(C)C(C)C)c4F)c3c2)cn1", "note": "[Compound P-0075, 3-[2-fluoro-3-[[isopropyl(methyl)sulfamoyl]amino]benzoyl]-5-(2-methoxypyrimidin-5-yl)-1H-pyrrolo[2,3-b]pyridine]", "IC50": "> 0.1"},
      {"smiles": "CCCN(C)S(=O)(=O)Nc1ccc(F)c(C(=O)c2c[nH]c3ncc(-c4ccc(C5(C#N)CC5)cc4)cc23)c1F", "note": "[Compound P-0079, 5-[4-(1-cyanocyclopropyl)phenyl]-3-[2,6-difluoro-3-[[methyl(propyl)sulfamoyl]amino]benzoyl]-1H-pyrrolo[2,3-b]pyridine]", "IC50": "< 0.1"},
      {"smiles": "CCCN(C)S(=O)(=O)Nc1cccc(C(=O)c2c[nH]c3ncc(-c4cnc(NC5CC5)nc4)cc23)c1F", "note": "[Compound P-0082, 5-[2-(cyclopropylamino)pyrimidin-5-yl]-3-[2-fluoro-3-[[methyl(propyl)sulfamoyl]amino]benzoyl]-1H-pyrrolo[2,3-b]pyridine]", "IC50": "< 0.1"},
      {"smiles": "COc1ncc(-c2cnc3[nH]cc(C(=O)c4cccc(NS(=O)(=O)N(C)CC5CC5)c4F)c3c2)cn1", "note": "[Compound P-0083, 3-[3-[[cyclopropylmethyl(methyl)sulfamoyl]amino]-2-fluoro-benzoyl]-5-(2-methoxypyrimidin-5-yl)-1H-pyrrolo[2,3-b]pyridine]", "IC50": "< 0.1"},
      {"smiles": "CCCN(C)S(=O)(=O)Nc1cccc(C(=O)c2c[nH]c3ncc(-c4cnc(C5CC5)nc4)cc23)c1F", "note": "[Compound P-0086, 5-(2-cyclopropylpyrimidin-5-yl)-3-[2-fluoro-3-[[methyl(propyl)sulfamoyl]amino]benzoyl]-1H-pyrrolo[2,3-b]pyridine]", "IC50": "< 0.1"},
      {"smiles": "CCN(C)S(=O)(=O)Nc1cccc(C(=O)c2c[nH]c3ncc(-c4ccc(C5CC5)nc4)cc23)c1F", "note": "[Compound P-0087, 5-(6-cyclopropyl-3-pyridyl)-3-[3-[[ethyl(methyl)sulfamoyl]amino]-2-fluoro-benzoyl]-1H-pyrrolo[2,3-b]pyridine]", "IC50": "< 0.1"},
      {"smiles": "N#Cc1ncc(-c2cnc3[nH]cc(C(=O)c4cccc(NS(=O)(=O)N5CCCC5)c4F)c3c2)cn1", "note": "[Compound P-0091, N-[3-[5-(2-cyanopyrimidin-5-yl)-1H-pyrrolo[2,3-b]pyridine-3-carbonyl]-2-fluoro-phenyl]pyrrolidine-1-sulfonamide]", "IC50": "< 0.1"},
      {"smiles": "CN(C)S(=O)(=O)Nc1cccc(C(=O)c2c[nH]c3ncc(-c4cnc(C#N)nc4)cc23)c1F", "note": "[Compound P-0096, 5-(2-cyanopyrimidin-5-yl)-3-[3-(dimethylsulfamoylamino)-2-fluoro-benzoyl]-1H-pyrrolo[2,3-b]pyridine]", "IC50": "< 0.1"},
      {"smiles": "CN(C)S(=O)(=O)Nc1cccc(C(=O)c2c[nH]c3ncc(-c4ccc(C(C)(C)O)cc4)cc23)c1F", "note": "[Compound P-0103, 3-[3-(dimethylsulfamoylamino)-2-fluoro-benzoyl]-5-[4-(1-hydroxy-1-methyl-ethyl)phenyl]-1H-pyrrolo[2,3-b]pyridine]", "IC50": "< 0.1"},
      {"smiles": "CC(C)(O)c1ccc(-c2cnc3[nH]cc(C(=O)c4cccc(NS(=O)(=O)N5CCCC5)c4F)c3c2)cc1", "note": "[Compound P-0105, N-[2-fluoro-3-[5-[4-(1-hydroxy-1-methyl-ethyl)phenyl]-1H-pyrrolo[2,3-b]pyridine-3-carbonyl]phenyl]pyrrolidine-1-sulfonamide]", "IC50": "< 0.1"},
      {"smiles": "CCN(C)S(=O)(=O)Nc1cccc(C(=O)c2c[nH]c3ncc(-c4cnc(N5CCCC5)nc4)cc23)c1F", "note": "[Compound P-0108, 3-[3-1[[ethyl(methyl)sulfamoyl]amino]-2-fluoro-benzoyl]-5-(2-pyrrolidin-1-ylpyrimidin-5-yl)-1H-pyrrolo[2,3-b]pyridine]", "IC50": "< 0.1"},
      {"smiles": "CCCNS(=O)(=O)Nc1cccc(C(=O)c2c[nH]c3ncc(C)cc23)c1F", "note": "[Compound P-0223, [2-fluoro-3-(propylsulfamoylamino)phenyl]-(5-methyl-1H-pyrrolo[2,3-b]pyridin-3-yl)methanone]", "IC50": "> 0.1"},
      {"smiles": "O=C(c1cccc(NS(=O)(=O)N2CCCC2)c1F)c1c[nH]c2ncc(-c3cnc(NC4CC4)nc3)cc12", "note": "[Compound P-0232, N-[3-[5-[2-(cyclopropylamino)pyrimidin-5-yl]-1H-pyrrolo[2,3-b]pyridine-3-carbonyl]-2-fluoro-phenyl]pyrrolidine-1-sulfonamide]", "IC50": "< 0.1"},
      {"smiles": "CCOc1cnc(-c2cnc3[nH]cc(C(=O)c4c(F)ccc(NS(=O)(=O)N(C)C)c4F)c3c2)cn1", "note": "[Compound P-0244, 3-[3-(dimethylsulfamoylamino)-2,6-difluoro-benzoyl]-5-(5-ethoxypyrazin-2-yl)-1H-pyrrolo[2,3-b]pyridine]", "IC50": "< 0.1"},
      {"smiles": "CN(C)S(=O)(=O)Nc1cccc(C(=O)c2c[nH]c3ncc(-c4ccc(C(C)(C)C#N)cc4)cc23)c1F", "note": "[Compound P-0245, 5-[4-(1-cyano-1-methyl-ethyl)phenyl]-3-[3-(dimethylsulfamoylamino)-2-fluoro-benzoyl]-1H-pyrrolo[2,3-b]pyridine]", "IC50": "< 0.1"},
      {"smiles": "COC(=O)C1(c2ccc(-c3cnc4[nH]cc(C(=O)c5cccc(NS(=O)(=O)N6CCCC6)c5F)c4c3)cc2)CC1", "note": "[Compound P-0254, methyl 1-[4-[3-[2-fluoro-3-(pyrrolidin-1-ylsulfonylamino)benzoyl]-1H-pyrrolo[2,3-b]pyridin-5-yl]phenyl]cyclopropanecarboxylate]", "IC50": "< 0.1"},
      {"smiles": "CN(C)S(=O)(=O)Nc1ccc(F)c(C(=O)c2c[nH]c3ncc(-c4ccc(C(C)(C)C#N)cc4)cc23)c1F", "note": "[Compound P-0255, 5-[4-(1-cyano-1-methyl-ethyl)phenyl]-3-[3-(dimethylsulfamoylamino)-2,6-difluoro-benzoyl]-1H-pyrrolo[2,3-b]pyridine]", "IC50": "< 0.1"},
      {"smiles": "CCOC(=O)C1CCCN1S(=O)(=O)Nc1cccc(C(=O)c2c[nH]c3ncc(-c4cnc(OC)nc4)cc23)c1F", "note": "(centres unmarked) [Compound P-0257, ethyl 1-[[2-fluoro-3-[5-(2-methoxypyrimidin-5-yl)-1H-pyrrolo[2,3-b]pyridine-3-carbonyl]phenyl]sulfamoyl]pyrrolidine-2-carboxylate]", "IC50": "> 0.1"},
      {"smiles": "CCN(C)S(=O)(=O)Nc1ccc(F)c(C(=O)c2c[nH]c3ncc(-c4cnc(N5CCN(C(=O)OC(C)(C)C)CC5)nc4)cc23)c1F", "note": "[Compound P-0264, tert-butyl 4-[5-[3-[3-[[ethyl(methyl)sulfamoyl]amino]-2,6-difluoro-benzoyl]-1H-pyrrolo[2,3-b]pyridin-5-yl]pyrimidin-2-yl]piperazine-1-carboxylate]", "IC50": "< 0.1"},
      {"smiles": "O=C(c1c(F)ccc(NS(=O)(=O)N2CCCC2)c1F)c1c[nH]c2ncc(-c3cnc(N4CCOCC4)nc3)cc12", "note": "[Compound P-0266, N-[2,4-difluoro-3-[5-(2-morpholinopyrimidin-5-yl)-1H-pyrrolo[2,3-b]pyridine-3-carbonyl]phenyl]pyrrolidine-1-sulfonamide]", "IC50": "< 0.1"},
      {"smiles": "CC(=O)N(C)C1CCN(S(=O)(=O)Nc2cccc(C(=O)c3c[nH]c4ncc(-c5cnc(C6CC6)nc5)cc34)c2F)C1", "note": "(centres unmarked) [Compound P-0267, N-[1-[[3-[5-(2-cyclopropylpyrimidin-5-yl)-1H-pyrrolo[2,3-b]pyridine-3-carbonyl]-2-fluoro-phenyl]sulfamoyl]pyrrolidin-3-yl]-N-methyl-acetamide]", "IC50": "> 0.1"},
      {"smiles": "COc1ncc(-c2cnc3[nH]cc(C(=O)c4c(F)ccc(NS(=O)(=O)N5CCCC5)c4F)c3c2)s1", "note": "[Compound P-0270, N-[2,4-difluoro-3-[5-(2-methoxythiazol-5-yl)-1H-pyrrolo[2,3-b]pyridine-3-carbonyl]phenyl]pyrrolidine-1-sulfonamide]", "IC50": "< 0.1"}
    ]}
  ]
}
